Details of data set [1]: method as in Soares et al., 2016; Toyn et al., 2016. The conditions noted are these: ref Soares et al., 2016, Toyn et al.; cited from earlier work.
For data set [2], the system named is Notch proteolysis by γ-secretase. In words: Notch assay (Myc-tagged Notch NΔE in H4-APP751 neuroglioma cells). The conditions noted are these: H4-APP751 neuroglioma cells transfected with Myc-tagged Notch (NΔE) construct; Fig. 3. Type of data set: cell-based. How it is done: Notch assays were carried out as described previously ([Wagner et al., 2014]).

As for `CNc1nc(Nc2ccc(-n3cnc(C)n3)c(OC)c2)nc2c1CC[C@H]2c1ccc(F)cc1` [BMS-932481], the “hepatic safety in repeated oral dosing studies in humans” value in data set [1] is listed as “transient elevations in plasma concentrations of enzymes associated with hepatic toxicity”.
Regarding `C[C@H](NC(=O)Cc1cc(F)cc(F)c1)C(=O)N[C@H](C(=O)OC(C)(C)C)c1ccccc1` [N-[N-(3,5-difluorophenacetyl)-L-alanyl]-S-phenylglycine t-butyl ester, reference compound], in data set [2], the Notch proteolysis entry was “potently inhibits Notch proteolysis”.

The record behind these values is paper PMC5454592, “Pharmacological and Toxicological Properties of the Potent Oral γ-Secretase Modulator BPN-15606” (The Journal of Pharmacology and Experimental Therapeutics, 2017).
